In patent US11261201B2 (priority 2018, dated 2022) one finds MIC data, which are given here for 31 compounds.

Values after ≈ are worked out from the molar mass of the structure shown. Structures can show the parent of a compound that is named as a salt. Where two headings read alike, the source gives them in different places. Some results are limits rather than exact numbers.

In one experiment the test system is H37RvMA. Kind of experiment: Tuberculosis Alamar Blue/Resazurin assay (MIC). The note with it: Mycobacterium tuberculosis, H37RV, read-out: WT H37Rv MTB Activity. The format is cell-based.
In another experiment the test system is E. coli. The experiment in a line: Gram negative MIC protocol (OD600, LB, 24 h). The note with it: Escherichia coli.
The next experiment relates to A. baumannii. The experiment in a line: Gram negative MIC protocol (OD600, LB, 24 h). Particulars: Acinetobacter baumannii.
Where [1] appears, read: read-out: MIC E. coli delta-TolC LB Media, E. coli delta-TolC, LB media, OD600.
Setting [2] is: read-out: MIC WT E. coli LB Media, WT E. coli, LB media, OD600.
[3] abbreviates: read-out: MIC A. baumannii LB Media, A. baumannii, LB media, 24 h, OD600.
[4] abbreviates: read-out: MIC A. baumannii LB Media.
Where [5] appears, read: read-out: MIC E. coli delta-TolC LB Media, E. coli delta-TolC strain, LB media, 24 h, OD600.
The mark [6] stands for this setting: read-out: MIC WT E. coli LB Media, wild-type E. coli, LB media, 24 h, OD600.

Method for A. baumannii: (§1) Overnight bacterial cultures were grown in LB with no added antibiotics at 37° C. with shaking. A 1:1000 dilution of these cultures into LB was exposed to concentration gradients of compounds in 96-well plates (100 μL per well assay volume). Resulting plates were incubated at 37° C. for 24 h without shaking, and OD600 was measured at the end of the incubation. MICs were determined as the lowest concentrations at which OD600 remained at baseline.
Method for E. coli: as §1

As for `c1ccc(CNCCN2CC3CCC(C2)O3)cc1` [B64], the MIC with H37RvMA, in the experiment with E. coli (setting [1]), with E. coli (setting [2]) and in the experiment with A. baumannii (setting [3]) was > 150 µM throughout.

With `c1ccc(CNCCc2ccc3c(c2)CCO3)cc1` [B24], the MIC with H37RvMA, in the experiment with E. coli (setting [1]), with E. coli (setting [2]) and in the experiment with A. baumannii (setting [4]) was > 150 µM each time.

Take `CC(CC1CCCCC1)NCc1ccccc1CS(=O)(=O)N(C)C[C@H](O)CO` (stereo partly drawn) [B438, 1-(2-(((1-cyclohexylpropan-2-yl)amino)methyl)phenyl)-N-((S)-2,3-dihydroxypropyl)-N-methylmethanesulfonamide]: the MIC in the experiment with H37RvMA (WT H37Rv MTB) was > 150 µM; with E. coli (setting [1]), 7 µM (≈ 2.89 µg/mL); in the experiment on E. coli (setting [2]), 150 µM (≈ 61.9 µg/mL); in the experiment with A. baumannii (setting [3]) it was > 150 µM.

As for `Nc1ccccc1CNCCC1CCCCC1` [B235, 2-((2-cyclohexylethylamino)methyl)aniline hydrochloride], the MIC with H37RvMA (WT H37Rv MTB) was > 150 µM; with E. coli (setting [5]), 96 µM; in the experiment on E. coli (setting [6]) it was 96 µM; in the experiment on A. baumannii (setting [3]) it was > 300 µM.

In the case of `OB(O)Cc1ccccc1CNCCC1CCCCC1` [B376, 2-((2-cyclohexylethylamino)methyl)benzylboronic acid], the MIC with H37RvMA (WT H37Rv MTB) was > 150 µM; with E. coli (setting [5]), 91 µM (≈ 25 µg/mL); in the experiment with E. coli (setting [6]), 150 µM (≈ 41.3 µg/mL); in the experiment on A. baumannii (setting [3]), > 150 µM.

`CC(CC1CCCCC1)NCc1ccccc1OCC1CNC(=O)C1` (stereo not shown) [B403]: the MIC is > 150 µM with H37RvMA (WT H37Rv MTB), 7 µM (≈ 2.41 µg/mL) in the experiment with E. coli (setting [1]), > 150 µM in the experiment on E. coli (setting [2]) and > 150 µM in the experiment with A. baumannii (setting [3]).

As for `CC(CC1CC1)NCc1ccccc1` (stereo not shown) [B34], the MIC in the experiment with H37RvMA (WT H37Rv MTB), with E. coli (setting [1]), with E. coli (setting [2]) and in the experiment on A. baumannii (setting [3]) was > 150 µM each time.

As to `O=C1NCC(COc2ccccc2CNCCC2=CCCCC2)O1` (stereo not shown) [B402], the MIC is > 150 µM with H37RvMA (WT H37Rv MTB), 33 µM (≈ 10.9 µg/mL) in the experiment on E. coli (setting [1]), 150 µM (≈ 49.6 µg/mL) in the experiment on E. coli (setting [2]) and > 150 µM in the experiment on A. baumannii (setting [3]).

As for `CC1CCCCC1CCNCc1ccccc1` (stereo not shown) [B178], the MIC in the experiment on H37RvMA (WT H37Rv MTB) was 55 µM (≈ 12.7 µg/mL); in the experiment with E. coli (setting [1]), > 300 µM; in the experiment with E. coli (setting [2]) it was > 300 µM; with A. baumannii (setting [3]) it was > 300 µM.

Consider `CC(CC1CCCCC1)NCc1ccccc1OCC(=O)N1CCNC1=O` (stereo not shown) [B347], for which the MIC was > 150 µM in the experiment with H37RvMA (WT H37Rv MTB), 4 µM (≈ 1.49 µg/mL) with E. coli (setting [5]), 150 µM (≈ 56 µg/mL) with E. coli (setting [6]) and > 150 µM with A. baumannii (setting [3]).

Regarding `c1ccc(CNC2CCCCC2)cc1` [B7], the MIC with H37RvMA (WT H37Rv MTB), in the experiment on E. coli (setting [1]), with E. coli (setting [2]) and in the experiment on A. baumannii (setting [3]) was > 150 µM in each case.

On to `CC(CC1CCCCC1)NCc1ccccc1OCc1ccccc1I` (stereo not shown) [B388, 1-cyclohexyl-N-(2-((2-iodobenzyl)oxy)benzyl)propan-2-amine], for which the MIC in the experiment with H37RvMA (WT H37Rv MTB) was 33.4 µM (≈ 15.5 µg/mL); with E. coli (setting [5]), 7 µM (≈ 3.24 µg/mL); in the experiment with E. coli (setting [6]), 150 µM (≈ 69.5 µg/mL); in the experiment with A. baumannii (setting [3]), 33 µM (≈ 15.3 µg/mL).

As for `CC(CNCc1ccccc1)C1CCCCC1` (stereo not shown) [B103], the MIC with H37RvMA (WT H37Rv MTB) is > 150 µM; with E. coli (setting [1]), 150 µM (≈ 34.7 µg/mL); with E. coli (setting [2]), 150 µM (≈ 34.7 µg/mL); in the experiment on A. baumannii (setting [3]) it was > 150 µM.

For `OB1OCc2cccc(CNCCC3CCCCC3)c21` [B339], the MIC in the experiment with H37RvMA (WT H37Rv MTB) was > 150 µM; with E. coli (setting [5]), 200 µM (≈ 54.6 µg/mL); in the experiment on E. coli (setting [6]), > 300 µM; in the experiment on A. baumannii (setting [3]), > 300 µM.

In the case of `c1ccc(CNCC2CCCCCC2)cc1` [B99], the MIC in the experiment on H37RvMA (WT H37Rv MTB) is 55 µM (≈ 12 µg/mL); with E. coli (setting [1]) it was > 150 µM; in the experiment with E. coli (setting [2]), > 150 µM; in the experiment on A. baumannii (setting [3]), > 150 µM.

For the compound `c1ccc(OCC2CCCO2)c(CNCCC2CCCCC2)c1` (stereo not shown) [B329, 2-cyclohexyl-N-(2-((tetrahydrofuran-2-yl)methoxy)benzyl)ethanamine], the MIC in the experiment on H37RvMA (WT H37Rv MTB) is > 150 µM; in the experiment with E. coli (setting [5]), 33 µM (≈ 10.5 µg/mL); in the experiment with E. coli (setting [6]) it was > 150 µM; in the experiment with A. baumannii (setting [3]), > 150 µM.

As for `CC(CC1CCCCC1)NCc1ccccc1OCc1ccccc1Oc1ccccc1` (stereo not shown) [B463, 1-cyclohexyl-N-(2-((2-phenoxybenzyl)oxy)benzyl)propan-2-amine], the MIC is 17 µM (≈ 7.3 µg/mL) with H37RvMA (WT H37Rv MTB), 4 µM (≈ 1.72 µg/mL) in the experiment with E. coli (setting [1]), > 150 µM in the experiment with E. coli (setting [2]) and > 150 µM in the experiment on A. baumannii (setting [3]).

For the compound `COC1(CC(C)NCc2ccccc2)CCC1` (stereo not shown) [B52], the MIC in the experiment on H37RvMA (WT H37Rv MTB), in the experiment on E. coli (setting [1]), in the experiment on E. coli (setting [2]) and in the experiment on A. baumannii (setting [3]) was > 150 µM in each case.

Turning to `CC(CC1CCCCC1)NCc1ccccc1OCc1cn2ccccc2n1` (stereo not shown) [B244], the MIC in the experiment with H37RvMA (WT H37Rv MTB) was found to be 150 µM (≈ 56.6 µg/mL); in the experiment on E. coli (setting [5]) it was 3 µM (≈ 1.13 µg/mL); in the experiment on E. coli (setting [6]), 91 µM (≈ 34.4 µg/mL); in the experiment with A. baumannii (setting [3]), 150 µM (≈ 56.6 µg/mL).

`CC(CC1CCCCC1)NCc1ccccc1OC1CC2CCC1CC2` (stereo not shown) [B395, N-(2-(bicyclo[2.2.2]octan-2-yloxy)benzyl)-1-cyclohexylpropan-2-amine]: the MIC was 20.2 µM (≈ 7.18 µg/mL) with H37RvMA (WT H37Rv MTB), 3 µM (≈ 1.07 µg/mL) in the experiment on E. coli (setting [5]), > 150 µM in the experiment on E. coli (setting [6]) and 33 µM (≈ 11.7 µg/mL) with A. baumannii (setting [3]).

Regarding `c1ccc(-c2cccc3ccccc23)c(CNCCC2CCCCC2)c1` [B238, 2-cyclohexyl-N-(2-(naphthalen-1-yl)benzyl)ethanamine hydrochloride], the MIC is 55 µM with H37RvMA (WT H37Rv MTB), 10 µM in the experiment on E. coli (setting [5]), > 300 µM in the experiment with E. coli (setting [6]) and 54 µM in the experiment with A. baumannii (setting [3]).

`CC(CC1CCCCC1)NCc1ccccc1OCCCOCC(F)(F)F` (stereo not shown) [B304]: the MIC with H37RvMA (WT H37Rv MTB) is 91 µM (≈ 35.3 µg/mL); in the experiment on E. coli (setting [5]), 3 µM (≈ 1.16 µg/mL); with E. coli (setting [6]), > 150 µM; with A. baumannii (setting [3]), > 150 µM.

Consider `CC(CC1CCCCC1)NCc1ccccc1OCc1ccccc1Cl` (stereo not shown) [B382], for which the MIC in the experiment with H37RvMA (WT H37Rv MTB) is 12.2 µM (≈ 4.54 µg/mL); with E. coli (setting [5]) it was 3 µM (≈ 1.12 µg/mL); in the experiment on E. coli (setting [6]) it was 55 µM (≈ 20.5 µg/mL); with A. baumannii (setting [3]) it was 55 µM (≈ 20.5 µg/mL).

Turning to `c1ccc(CNCC2CCc3ccccc32)cc1` (stereo not shown) [B213, N-benzyl-1-(2,3-dihydro-1H-inden-1-yl)methanamine hydrochloride], the MIC is > 150 µM in the experiment with H37RvMA (WT H37Rv MTB), > 300 µM in the experiment with E. coli (setting [5]), > 300 µM in the experiment on E. coli (setting [6]) and > 300 µM in the experiment on A. baumannii (setting [3]).

With `CC(CC1CCCCC1)NCc1ccccc1OCCN(C)C` (stereo not shown) [B315], the MIC was > 150 µM with H37RvMA (WT H37Rv MTB), 150 µM (≈ 47.8 µg/mL) in the experiment with E. coli (setting [5]), 91 µM (≈ 29 µg/mL) with E. coli (setting [6]) and 150 µM (≈ 47.8 µg/mL) in the experiment on A. baumannii (setting [3]).

For `CC1(C)Cc2cccc(CCNCc3ccccc3)c2O1` [B108], the MIC in the experiment with H37RvMA, with E. coli (setting [1]), with E. coli (setting [2]) and with A. baumannii (setting [4]) was > 150 µM each time.

Regarding `COc1ccc2c(c1)[C@@H](NCc1ccccc1)CC2` [B209, (S)-N-benzyl-6-methoxy-2,3-dihydro-1H-inden-1-amine hydrochloride], the MIC in the experiment on H37RvMA (WT H37Rv MTB) was > 150 µM; in the experiment with E. coli (setting [5]) it was > 300 µM; with E. coli (setting [6]) it was > 300 µM; in the experiment with A. baumannii (setting [3]), > 300 µM.

In the case of `OCc1cccc(CNCCC2CCCCC2)c1` [B375], the MIC in the experiment on H37RvMA (WT H37Rv MTB), in the experiment with E. coli (setting [5]), in the experiment with E. coli (setting [6]) and in the experiment with A. baumannii (setting [3]) was > 150 µM throughout.

Turning to `CCOCOc1ccccc1CNC(C)CC1CCCCC1` (stereo not shown) [B311], the MIC is > 150 µM in the experiment on H37RvMA (WT H37Rv MTB), 7 µM (≈ 2.14 µg/mL) in the experiment with E. coli (setting [5]), > 150 µM in the experiment with E. coli (setting [6]) and > 150 µM with A. baumannii (setting [3]).

Consider `CC(CC1CCCCC1)NCc1ccccc1OCc1nc(C(C)C)no1` (stereo not shown) [B323], for which the MIC in the experiment on H37RvMA (WT H37Rv MTB) is 150 µM (≈ 55.7 µg/mL); in the experiment with E. coli (setting [5]), 4 µM (≈ 1.49 µg/mL); in the experiment with E. coli (setting [6]), > 150 µM; in the experiment on A. baumannii (setting [3]), > 150 µM.

For the compound `Fc1ccc(CNCCC2=CCCCC2)cc1` [B14], the MIC in the experiment on H37RvMA (WT H37Rv MTB), in the experiment with E. coli (setting [1]), with E. coli (setting [2]) and with A. baumannii (setting [3]) was > 150 µM in each case.
